Results from PMC11764660, “Self-Assembled Peptide Hydrogels PPI45 and PPI47: Novel Drug Candidates for Staphylococcus aureus Infection Treatment” (Gels, 2025).

Key:
Format in all cases: cell-based, Staphylococcus aureus
S. aureus ATCC 43300 [1] = assay: Time-dependent bactericidal kinetic curve (time-kill); conditions: 2× MIC, S. aureus ATCC 43300, start 1×10^5 CFU/mL, 37 °C, 250 rpm
Method: The mixture was subsequently incubated in a shaker at 37 °C and 250 rpm. At predetermined intervals (0, 0.5, 1, 2, 4, 6, 10, 22, and 24 h), 100 μL aliquots were withdrawn and subjected to serial 10-fold dilutions before being plated for colony counting.

S. aureus ATCC43300 [2] = assay: Cell membrane integrity analysis (PI, flow cytometry); conditions: 2×MIC, 37 °C, 10^8 CFU/mL
Method: The solution was incubated at 37 °C for 0.5, 1, 1.5, and 2 h, respectively, and 0.01 M PBS (pH 7.4) was used as a blank control. After the incubation periods, each sample was centrifugated at 4000 rpm for 5 min. Subsequently, 400 µL of the supernatant was removed, and 400 µL of sterile PBS was added. The samples were washed twice and then resuspended with PBS to a final volume of 450 µL. A 50 µL volume of PI staining solution (500 µg/mL) was added, and the samples were incubated for 15 min in the dark. Finally, the cells fixed with PI were analyzed using flow cytometry.

S. aureus ATCC 43300 [3] = assay: PAE assay; conditions: 2×MIC, 2 h exposure of 10^8 CFU/mL at 37 °C, 1000-fold dilution; time for tenfold increase of the colony count
Method: The mixture was subsequently incubated for 2 h at 37 °C and 250 rpm. Upon completion of the incubation period, 50 µL of the solution was withdrawn and diluted 1000-fold by adding […] of pre-warmed MHB, which was designated as the 0 h time point. Subsequently, samples were collected at 0, 0.5, 1, 2, 4, 6, 8, 10, 12, and 24 h. Each sample was subjected to 10-fold serial dilutions before being plated, and colony counts were performed. PBS served as the negative control. The time required for the colony count in each treatment group to increase tenfold relative to the post-reconstruction baseline was determined as PAE.

S. aureus ATCC43300 [4] = assay: SEM observation of bacterial morphology; conditions: 2×MIC, 2 h, 37 °C, 10^8 CFU/mL
Method: This mixture was incubated at 37 °C for 2 h. The 0.01 M PBS (pH 7.4) served as the blank control. After being centrifugated at 4000 rpm for 5 min, the samples were carefully washed three times with 0.01 M PBS. Next, 1 mL of 2.5% glutaraldehyde was added to each sample and stored at 4 °C overnight. The samples were washed twice with distilled water and subsequently dehydrated through a series of ethanol solutions (50%, 70%, 85%, 95%, and 100%). Each sample received three treatments with 100% ethanol, followed by drying at the CO2 critical point, gold sputtering, and observation under a scanning electron microscope.

S. aureus ATCC 43300 [5] = assay: Membrane potential (DiSC3(5)); conditions: DiSC3(5) fluorescence, 1×, 2×, 4× MIC, 30 min, 37 °C, three replicates
Method: The fluorescent probe DiSC3(5) (0.5 mM) was co-incubated with PBS (10^8 CFU/mL) of S. aureus for 30 min at 37 °C. A total of 180 µL of bacteria carrying fluorescent probes and 20 µL of peptide solution at varying concentrations were added to 96-well plates and incubated for 30 min at 37 °C. The sample treated with PBS served as the negative control, and each concentration was set as three replicates. The alterations in fluorescence (excitation wavelength: 620 nm, emission wavelength: 670 nm) were monitored in real time over a period of 30 min using a multifunctional enzyme-labeling instrument.

Compound	bacterial count at 6 h (S. aureus ATCC 43300 [1]) [log10 CFU/mL]	bacterial count at 24 h (S. aureus ATCC 43300 [1]) [log10 CFU/mL]	membrane penetration rate (PI-positive bacteria) (S. aureus ATCC43300 [2]; 1 h) [%]	membrane penetration rate (PI-positive bacteria) (S. aureus ATCC43300 [2]; 1.5 h) [%]	membrane penetration rate (PI-positive bacteria) (S. aureus ATCC43300 [2]; 2 h) [%]	post-antibiotic effect (PAE) (S. aureus ATCC 43300 [3]) [h]	morphological changes of the bacteria by SEM (S. aureus ATCC43300 [4])	effect on membrane potential (S. aureus ATCC 43300 [5])
CC1COc2c(N3CCN(C)CC3)c(F)cc3c(=O)c(C(=O)O)cn1c23 (centres unmarked) [ofloxacin, Ofloxacin]	2	4.15	0.26	0.7	1.13	0.77	crumpled appearance with leakage of intracellular contents	–
nisin	–	–	–	–	–	–	–	depolarization
